“And” between values parts separate entries of the source, which are not always exact repeats. Equal values may be shown once. Read-outs that look alike come from different tables or passages of the source.
Experiments:
[1] = Pharmacokinetics in Sprague-Dawley rats (single dose i.v. and p.o.); type: in vivo, male Sprague-Dawley rats
Experimental: Pharmacokinetic studies were performed in male CD-1 (50 mg/kg i.p. or orally (p.o.)) or female nude mice (50 mg/kg i.v. or i.p.), male Sprague-Dawley rats (1, 5, 20 and 50 mg/kg i.v. and 100 mg/kg, p.o.), beagle dogs (20 mg/kg, i.v.) and cynomologus monkeys (20 mg/kg i.v.). Plasma TH302 concentrations were analyzed using a LC/MS method and the pharmacokinetic parameters computed using a noncompartmental method. Interspecies scaling was performed according to standard methods.
TH302 was dissolved in 50% PEG400/Saline to obtain a final concentration of 25 mg/mL, and then was further diluted to yield 25, 10, 2.5 and 0.5 mg/mL formulations of TH302 (pH The formulations were prepared just before dosing. The concentration of TH302 in dosing solution was confirmed by HPLC-UV. Male Sprague Dawley rats (body weight: 200 g to 230 g) were used in this study. Before the pharmacokinetic studies, animals were randomly assigned to four treatment groups cannulated in the carotid artery for serial blood sampling. All rats were administered a single intravenous bolus dose over one minute via the tail vein. The concentrations of TH302 in plasma were determined using a high performance liquid chromatography/mass spectrometry (HPLC/MS/MS) method. […]

[2] = Repeat dose GLP study with dogs; type: in vivo
From the text: These changes were reversible.

[3] = GLP multiple-dose toxicity study in rats; type: in vivo
Experimental: Each rat received a 30 minute infusion once a week for three weeks (Q7D×3).

[4] = test system: PC-3 human prostate tumor; assay: GFP PC3 prostate orthotopic model; type: in vivo, mice
[5] = rats, 1 mg/kg i.v. bolus, individual animals, 1 mg/kg
[6] = rats, 5 mg/kg i.v. bolus, individual animals, 5 mg/kg
[7] = rats, 20 mg/kg i.v. bolus, individual animals, 20 mg/kg
[8] = rats, 50 mg/kg i.v. bolus, individual animals, 50 mg/kg

Question: With `Cn1c(COP(=O)(NCCBr)NCCBr)cnc1[N+](=O)[O-]` [TH302] as the compound, how does the MRT ([1]; male, Sprague-Dawley, rat, plasma, iv, 50 mg/kg, rats, 50 mg/kg i.v. bolus, individual animals, read-out: MRT) read?
Answer: 17.4 min

Question: And the Vd ([1]; male, Sprague-Dawley, rat, plasma, iv, 50 mg/kg, rats, 50 mg/kg i.v. bolus, individual animals, read-out: Vss)?
Answer: 1.63 L/kg

Question: And the AUC ([1]; male, Sprague-Dawley, rat, plasma, iv, 50 mg/kg, rats, i.v. bolus, up to 8 mg/kg human equivalent daily dose, read-out: exposure of TH302, AUC)?
Answer: ~8.5 µg·h/mL

Question: What about the clearance ([1]; male, Sprague-Dawley, rat, plasma, iv, rats, i.v. dose 1-50 mg/kg, range of means, read-out: Mean Cl) of the same compound?
Answer: 4.69 to 6.14 L/h/kg

Question: What about the Vd ([1]; male, Sprague-Dawley, rat, plasma, iv, rats, i.v. dose 1-50 mg/kg, range of means, read-out: mean Vss) of the same compound?
Answer: 1.67 to 5.09 L/kg

Question: And the half-life ([1]; male, Sprague-Dawley, rat, plasma, iv, rats, i.v. dose 1-50 mg/kg, range of means, read-out: mean terminal plasma t1/2)?
Answer: 79.2 to 262 min

Question: What about the Tmax ([1]; male, Sprague-Dawley, rat, plasma, iv, rats, 1 mg/kg i.v. bolus, individual animals) of the same compound?
Answer: 1.8 min

Question: And the Tmax ([1]; male, Sprague-Dawley, rat, plasma, iv, rats, 5 mg/kg i.v. bolus, individual animals)?
Answer: 1.8 min

Question: What about the Tmax ([1]; male, Sprague-Dawley, rat, plasma, iv, rats, 20 mg/kg i.v. bolus, individual animals) of the same compound?
Answer: 1.8 min

Question: What about the Tmax ([1]; male, Sprague-Dawley, rat, plasma, iv, rats, 50 mg/kg i.v. bolus, individual animals) of the same compound?
Answer: 1.8 min

Question: And the Vβ ([1]; rats, 1 mg/kg i.v. bolus, MEAN)?
Answer: 13.55 L/kg

Question: What about the “AUC(0-t)” value [1, 5] of the same compound?
Answer: 0.2737 µg·h/mL and 0.20222 µg·h/mL

Question: What about the “AUC(0-∞)” value [1, 5] of the same compound?
Answer: 0.28201 µg·h/mL and 0.20334 µg·h/mL

Question: What about the CL [1, 5] of the same compound?
Answer: 3.55 L/h/kg

Question: And the Cmax [1, 5]?
Answer: 0.99012 µg/mL and 0.7322 µg/mL

Question: What about the MRT [1, 5] of the same compound?
Answer: 61.8 min

Question: And the T1/2 [1, 5]?
Answer: 130 min and 131 min

Question: And the Vss [1, 5]?
Answer: 2.82 L/kg

Question: What about the Vβ [1, 5] of the same compound?
Answer: 14.19 L/kg and 11.03 L/kg and 15.45 L/kg

Question: And the Vβ ([1]; rats, 5 mg/kg i.v. bolus, MEAN)?
Answer: 30.66 L/kg

Question: And the “AUC(0-t)” value [1, 6]?
Answer: 0.86822 µg·h/mL

Question: What about the “AUC(0-∞)” value [1, 6] of the same compound?
Answer: 0.91939 µg·h/mL

Question: What about the CL [1, 6] of the same compound?
Answer: 5.44 L/h/kg

Question: What about the Cmax [1, 6] of the same compound?
Answer: 3.80381 µg/mL

Question: What about the MRT [1, 6] of the same compound?
Answer: 27 min and 81.6 min

Question: And the T1/2 [1, 6]?
Answer: 73.2 min and 377 min

Question: What about the Vβ [1, 6] of the same compound?
Answer: 11.99 L/kg and 49.33 L/kg

Question: And the Vβ ([1]; rats, 20 mg/kg i.v. bolus, MEAN)?
Answer: 41.04 L/kg

Question: What about the “AUC(0-t)” value [1, 7] of the same compound?
Answer: 3.38061 µg·h/mL and 3.5978 µg·h/mL

Question: And the “AUC(0-∞)” value [1, 7]?
Answer: 3.38713 µg·h/mL and 3.61851 µg·h/mL

Question: And the CL [1, 7]?
Answer: 5.53 L/h/kg

Question: What about the Cmax [1, 7] of the same compound?
Answer: 12.0091 µg/mL and 15.0535 µg/mL

Question: And the MRT [1, 7]?
Answer: 24.6 min and 22.2 min

Question: What about the T1/2 [1, 7] of the same compound?
Answer: 564 min and 64.8 min and 159 min

Question: And the Vss [1, 7]?
Answer: 1.68 L/kg

Question: What about the Vβ [1, 7] of the same compound?
Answer: 92.86 L/kg and 9.16 L/kg and 21.10 L/kg

Question: What about the Vβ ([1]; rats, 50 mg/kg i.v. bolus, MEAN) of the same compound?
Answer: 11.41 L/kg

Question: And the “AUC(0-t)” value [1, 8]?
Answer: 8.48272 µg·h/mL and 8.08324 µg·h/mL

Question: And the “AUC(0-∞)” value [1, 8]?
Answer: 8.48815 µg·h/mL and 8.10261 µg·h/mL

Question: What about the CL [1, 8] of the same compound?
Answer: 5.89 L/h/kg and 6.17 L/h/kg

Question: And the Cmax [1, 8]?
Answer: 37.2771 µg/mL and 32.0334 µg/mL

Question: What about the MRT [1, 8] of the same compound?
Answer: 18 min and 15.6 min

Question: And the T1/2 [1, 8]?
Answer: 46.2 min and 56.4 min and 134 min

Question: What about the Vss [1, 8] of the same compound?
Answer: 1.68 L/kg and 1.70 L/kg

Question: And the Vβ [1, 8]?
Answer: 6.28 L/kg and 7.99 L/kg and 19.94 L/kg

Question: And the “time of mean peak plasma concentration” value ([1]; rats, 100 mg/kg p.o., first sampled time point)?
Answer: 15 min

Question: What about the linearity of pharmacokinetics ([1]; rats, 1, 5, 20 and 50 mg/kg i.v.) of the same compound?
Answer: linear pharmacokinetics

Question: What about the “human equivalent dose of the minimally toxic dose” value ([2]; 8 mg/kg dog dose divided by 1.8) of the same compound?
Answer: about 4.5 mg/kg

Question: What about the minimally toxic dose ([2]; dog) of the same compound?
Answer: 8 mg/kg

Question: What about the “bone marrow finding at the high dose level” value ([2]; dogs, 16 mg/kg repeat dose) of the same compound?
Answer: hypocellularity was also reported in the bone marrow

Question: And the hematologic findings ([2]; dogs, 4, 8, and 16 mg/kg repeat dose, particularly at the high dose level)?
Answer: leucopenia and neutropenia were evident

Question: What about the reversibility of changes ([2]; dogs, repeat dose) of the same compound?
Answer: reversible

Question: And the “human equivalent dose of the minimally toxic dose” value ([3]; 25 mg/kg rat dose divided by 6.2)?
Answer: about 4 mg/kg

Question: And the minimally toxic dose ([3]; rat)?
Answer: 25 mg/kg

Question: What about the “histopathology at the highest dose” value ([3]; rats, 50 mg/kg Q7D×3) of the same compound?
Answer: effects on the bone marrow and the tongue with minor effects on the kidney and the uterus

Question: What about the primary toxicities ([3]; rats, 12.5, 25 and 50 mg/kg, 30 minute infusion Q7D×3) of the same compound?
Answer: hematologic in nature and were reversible

Question: And the “reduction in tumor volume” value ([4]; compared to final measurements in the vehicle group (day 31))?
Answer: 84%

Question: What about the “tumor growth delay (TGD)” value ([4]; single agent, Taxotere 12 mg/kg once a week for two weeks) of the same compound?
Answer: 16 days

Reference: patent US8552048B2, “Phosphoramidate alkylator prodrugs for the treatment of cancer” (Threshold Pharmaceuticals, Inc., priority 2006, dated 2013)
